From PMC6321525 (Molecules, 2018) come the findings set out here.

Assay in all cases: biochemical
Holding throughout (type): biochemical

Assay [1] addresses T1, EfBChE (butyrylcholinesterase from equine serum) (Equus caballus, UniProt P81908).
T1 construct: EfBChE from equine serum (Equus ferus); from tissue; host or cells: equine serum
As to conditions: for SI, selectivity index based on IC50 values (EeAChE vs EfBChE): ratio of EfBChE to EeAChE IC50 values; for IC50: with standard error, 25 °C, 10 min preincubation, read-out: IC50, inhibition of EfBChE; for fold better than donepezil against EfBChE: ratio of IC50 values. How it is done: (§1) Experiments were performed as previously described. […] All assays were performed in duplicate or triplicate.

Assay [2] has as its target EeAChE (acetylcholinesterase from Electrophorus electricus) (Electrophorus electricus, UniProt O42275). As to conditions: for IC50: with standard error, 25 °C, 10 min preincubation, read-out: IC50, inhibition of EeAChE; for fold enhanced potency against EeAChE compared to donepezil: ratio of IC50 values. The protocol: as §1
Assay [3] has as its target T2, BACE1 (Homo sapiens, UniProt P56817).
T2 construct: purchased Millipore-Sigma CS0010-1KT
As to conditions: for IC50: fluorescence after 2 h, read-out: IC50, inhibition of BACE1. How it is done: Inhibition of BACE1 was tested using the commercial kit (cat CS0010-1KT, Millipore-Sigma, St. Louis, MO, USA) following the directions accompanying the kit. […] Dilutions were originally performed in DMSO, and 2 μL added to the reaction in order to account for any moderation of activity from the vehicle. Fluorescent measurements were taken after 2 h. The resulting rates were normalized to the reaction without inhibitor. In order to get an appropriate sigmoidal fit, two additional points (400 and 1000 μM) were added to the data when needed.

The target in assay [4] is HsAChE (acetylcholinesterase from Homo sapiens) (Homo sapiens, UniProt P22303). The protocol: as §1
Chain of HsAChE (acetylcholinesterase from Homo sapiens) (P22303 32-614): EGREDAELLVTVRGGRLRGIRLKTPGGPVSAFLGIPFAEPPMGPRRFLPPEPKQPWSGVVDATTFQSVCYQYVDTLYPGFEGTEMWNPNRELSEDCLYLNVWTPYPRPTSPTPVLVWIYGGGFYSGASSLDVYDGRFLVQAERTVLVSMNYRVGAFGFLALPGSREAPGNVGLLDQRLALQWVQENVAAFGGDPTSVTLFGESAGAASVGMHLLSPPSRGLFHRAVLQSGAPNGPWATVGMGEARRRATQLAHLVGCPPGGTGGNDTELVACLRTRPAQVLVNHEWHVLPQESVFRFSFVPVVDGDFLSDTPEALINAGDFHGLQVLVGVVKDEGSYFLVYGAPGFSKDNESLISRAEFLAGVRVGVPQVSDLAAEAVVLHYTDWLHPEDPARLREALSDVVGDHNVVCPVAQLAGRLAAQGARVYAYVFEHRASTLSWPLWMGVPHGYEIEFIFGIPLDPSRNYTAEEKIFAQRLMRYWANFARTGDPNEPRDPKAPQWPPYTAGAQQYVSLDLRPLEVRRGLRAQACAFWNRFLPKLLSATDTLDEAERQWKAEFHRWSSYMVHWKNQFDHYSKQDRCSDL

Several values for one entry are separate records, joined by “and”; a condition that tells them apart may be missing. Equal entries are not always repeated.

T1 sequence (P81908 whole entry): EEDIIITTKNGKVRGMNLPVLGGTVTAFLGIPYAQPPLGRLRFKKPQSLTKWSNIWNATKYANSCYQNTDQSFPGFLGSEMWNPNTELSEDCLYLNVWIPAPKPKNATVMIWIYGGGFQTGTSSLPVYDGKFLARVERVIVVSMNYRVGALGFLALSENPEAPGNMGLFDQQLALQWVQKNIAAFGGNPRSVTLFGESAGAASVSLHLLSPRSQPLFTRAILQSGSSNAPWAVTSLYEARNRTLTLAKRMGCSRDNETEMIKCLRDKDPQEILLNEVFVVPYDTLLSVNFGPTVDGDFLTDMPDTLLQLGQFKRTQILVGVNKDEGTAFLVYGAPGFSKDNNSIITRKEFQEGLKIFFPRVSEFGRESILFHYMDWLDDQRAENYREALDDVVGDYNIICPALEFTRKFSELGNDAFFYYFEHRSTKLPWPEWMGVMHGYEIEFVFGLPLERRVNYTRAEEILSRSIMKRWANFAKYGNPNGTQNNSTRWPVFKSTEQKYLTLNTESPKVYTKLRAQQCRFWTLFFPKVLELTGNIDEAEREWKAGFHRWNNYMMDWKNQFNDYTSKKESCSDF
T2 sequence (P56817 46-457): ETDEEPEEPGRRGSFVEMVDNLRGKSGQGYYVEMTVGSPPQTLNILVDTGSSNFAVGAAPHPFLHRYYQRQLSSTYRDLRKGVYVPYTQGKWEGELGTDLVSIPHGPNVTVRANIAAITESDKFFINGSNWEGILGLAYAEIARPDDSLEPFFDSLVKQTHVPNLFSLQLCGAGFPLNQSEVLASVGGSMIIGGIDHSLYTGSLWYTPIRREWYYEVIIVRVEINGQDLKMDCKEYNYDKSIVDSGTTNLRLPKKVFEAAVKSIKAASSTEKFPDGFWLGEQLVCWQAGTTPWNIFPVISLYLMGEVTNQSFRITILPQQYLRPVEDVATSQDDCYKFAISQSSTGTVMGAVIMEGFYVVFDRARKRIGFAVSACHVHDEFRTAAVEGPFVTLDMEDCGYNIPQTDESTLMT
Chain of EeAChE (acetylcholinesterase from Electrophorus electricus) (O42275 24-633): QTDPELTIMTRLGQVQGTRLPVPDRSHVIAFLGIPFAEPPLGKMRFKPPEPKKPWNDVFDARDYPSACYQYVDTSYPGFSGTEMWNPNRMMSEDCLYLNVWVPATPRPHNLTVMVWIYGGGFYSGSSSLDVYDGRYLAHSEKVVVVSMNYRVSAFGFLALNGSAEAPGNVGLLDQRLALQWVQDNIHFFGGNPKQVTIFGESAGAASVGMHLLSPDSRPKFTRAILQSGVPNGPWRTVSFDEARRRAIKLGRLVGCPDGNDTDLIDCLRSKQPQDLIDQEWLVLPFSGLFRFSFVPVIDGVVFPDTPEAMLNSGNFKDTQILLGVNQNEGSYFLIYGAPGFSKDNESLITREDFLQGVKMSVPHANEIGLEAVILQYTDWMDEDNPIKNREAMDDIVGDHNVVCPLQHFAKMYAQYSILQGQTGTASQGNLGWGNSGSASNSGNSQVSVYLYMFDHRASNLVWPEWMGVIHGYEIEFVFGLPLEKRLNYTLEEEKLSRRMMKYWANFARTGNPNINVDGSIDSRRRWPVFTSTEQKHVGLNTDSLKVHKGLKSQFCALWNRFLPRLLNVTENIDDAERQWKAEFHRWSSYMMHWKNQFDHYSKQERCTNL

As for `COc1cc2c(cc1O)C(=O)C(CC1CCN(Cc3ccccc3)CC1)C2` (centres unmarked) [Compound 7, 2-[(1-Benzylpiperidin-4-yl)methyl]-6-hydroxy-5-methoxy-2,3-dihydroinden-1-one], in assay [1], the “SI, selectivity index based on IC50 values (EeAChE vs EfBChE)” value (“SI, selectivity index based” below) is given as 11 and the IC50 turned out to be 4300 ± 400 nM. For the same molecule, the IC50 in assay [2] was 409 nM and 410 nM.
On to `COc1cc2c(cc1OCCCN)C(=O)C(CC1CCN(Cc3ccccc3)CC1)C2` (centres unmarked) [Compound 8a, 6-[(3-Aminopropyl)oxy]-2-[(1-benzylpiperidin-4-yl)methyl]-5-methoxy-2,3-dihydroinden-1-one], for which, in assay [1], the “SI, selectivity index based” value came out at 11; the “fold better than donepezil against EfBChE” value (from here on “fold better than donepezil”) amounted to 4 fold; the IC50 is 573 nM and 570 nM. In addition, the IC50 in assay [2] is 54 ± 3 nM. Moreover, the IC50 in assay [3] is 95000 ± 12000 nM.
For the molecule `COc1cc2c(cc1OCCN)C(=O)C(CC1CCN(Cc3ccccc3)CC1)C2` (centres unmarked) [Compound 8b, 6-[(3-Aminoethyl)oxy]-2-[(1-benzylpiperidin-4-yl)methyl]-5-methoxy-2,3-dihydroinden-1-one], in assay [1], the “SI, selectivity index based” value came out at 23; the “fold better than donepezil” value came out at 4 fold; the IC50 was 478 nM and 480 nM. Also, in assay [2], the “fold enhanced potency against EeAChE compared to donepezil” value (“fold enhanced potency against EeAChE” for short) is reported as 6 fold and the IC50 worked out at 21 ± 3 nM. Besides, the IC50 in assay [3] is around 100000 nM.
On to `CCCOc1cc2c(cc1OC)CC(CC1CCN(Cc3ccccc3)CC1)C2=O` (centres unmarked) [Compound 8c, 2-[(1-Benzylpiperidin-4-yl)methyl]-5-methoxy-6-propoxy-2,3-dihydroinden-1-one], for which, in assay [1], the “SI, selectivity index based” value worked out at 15; the IC50 was 2050 nM and 2100 nM. Also, the IC50 in assay [2] was 140 ± 20 nM. Moreover, in assay [3], the “BACE1 IC50 within fold of the IC50 of donepezil” value (“BACE1 IC50 within fold” for short) was at most 5 fold and the IC50 was found to be 6100 ± 100 nM.
As for `COc1cc2c(cc1OCCCl)C(=O)C(CC1CCN(Cc3ccccc3)CC1)C2` (centres unmarked) [Compound 8d, 2-[(1-Benzylpiperidin-4-yl)methyl]-6-[(chloroethyl)oxy]-5-methoxy-2,3-dihydroinden-1-one], in assay [1], the “SI, selectivity index based” value is given as 22; the “fold better than donepezil” value was 2 fold; the IC50 was determined as 1300 ± 100 nM. For the same molecule, in assay [2], the “fold enhanced potency against EeAChE” value worked out at 2 fold and the IC50 was 59 ± 4 nM. For the same molecule, the IC50 in assay [3] is around 100000 nM.
In the case of `COc1cc2c(cc1OCCBr)C(=O)C(CC1CCN(Cc3ccccc3)CC1)C2` (centres unmarked) [Compound 8e, 2-[(1-Benzylpiperidin-4-yl)methyl]-6-[(bromoethyl)oxy]-5-methoxy-2,3-dihydroinden-1-one], in assay [1], the “SI, selectivity index based” value was 30; the “fold better than donepezil” value is given as 2 fold; the IC50 was 1290 nM and 1300 nM. Further, in assay [2], the “fold enhanced potency against EeAChE” value amounted to 3 fold and the half-inhibitory concentration (IC50) amounted to 44 ± 3 nM. Further, in assay [3], the “BACE1 IC50 within fold” value is on record as at most 5 fold and the IC50 worked out at 7900 ± 900 nM.
For `COc1cc2c(cc1OCCCCBr)C(=O)C(CC1CCN(Cc3ccccc3)CC1)C2` (centres unmarked) [Compound 8f, 2-[(1-Benzylpiperidin-4-yl)methyl]-6-[(bromobutyl)oxy]-5-methoxy-2,3-dihydroinden-1-one], in assay [1], the “SI, selectivity index based” value is listed as 21. The IC50 is 1280 nM and 1300 nM in assay [1]; 61 ± 7 nM in assay [2]; 7900 ± 2400 nM in assay [3]. The “BACE1 IC50 within fold” value in assay [3] is reported as at most 5 fold.
`COc1cc2c(cc1OCCCCCCCCCCCCBr)C(=O)C(CC1CCN(Cc3ccccc3)CC1)C2` (centres unmarked) [Compound 8g, 2-[(1-Benzylpiperidin-4-yl)methyl]-6-[(bromododecyl)oxy]-5-methoxy-2,3-dihydroinden-1-one]: in assay [1], the “SI, selectivity index based” value turned out to be 6.6. For the same molecule, the IC50 was 5150 nM and 5200 nM in assay [1]; 789 nM and 790 nM in assay [2].
As for `COc1cc2c(cc1OCc1ccccc1)C(=O)C(CC1CCN(Cc3ccccc3)CC1)C2` (centres unmarked) [Compound 8h], in assay [1], the “SI, selectivity index based” value came to 5.4; the “fold better than donepezil” value came out at 3 fold; the IC50 is 704 nM and 700 nM. The IC50 in assay [2] is 131 nM and 130 nM. In addition, the IC50 in assay [3] amounted to 58000 ± 1000 nM.
`COc1cc2c(cc1OCc1ccc(C)cc1)C(=O)C(CC1CCN(Cc3ccccc3)CC1)C2` (centres unmarked) [Compound 8i]: the “SI, selectivity index based” value in assay [1] came to 4.3. Moreover, the IC50 in assay [1] was 997 nM and 1000 nM; in assay [2], 228 nM and 230 nM; in assay [3], 58000 ± 2000 nM.
For `COc1ccc(COc2cc3c(cc2OC)CC(CC2CCN(Cc4ccccc4)CC2)C3=O)cc1` (centres unmarked) [Compound 8j], in assay [1], the “SI, selectivity index based” value is 5.2; the IC50 is 668 nM and 670 nM. Further, the IC50 in assay [2] is 125 nM and 130 nM.
Take `COc1cc2c(cc1OCc1ccc([N+](=O)[O-])cc1)C(=O)C(CC1CCN(Cc3ccccc3)CC1)C2` (centres unmarked) [Compound 8k]: the “SI, selectivity index based” value in assay [1] came out at 3.5. Besides, the IC50 in assay [1] was 462 nM and 460 nM; in assay [2], 126 nM and 130 nM.
Regarding `COc1cc2c(cc1OCc1ccc(Br)cc1)C(=O)C(CC1CCN(Cc3ccccc3)CC1)C2` (centres unmarked) [Compound 8l], in assay [1], the “SI, selectivity index based” value is on record as 10 and the IC50 was found to be 720 ± 100 nM. Besides, the IC50 in assay [2] came out at 71 ± 15 nM. For the same molecule, in assay [3], the “BACE1 IC50 within fold” value is at most 5 fold and the IC50 amounted to 3400 ± 100 nM.
Take `COc1cc2c(cc1OCc1ccc(F)cc1)C(=O)C(CC1CCN(Cc3ccccc3)CC1)C2` (centres unmarked) [Compound 8m]: the “SI, selectivity index based” value in assay [1] is recorded as 7.0. Further, the IC50 in assay [1] is 570 ± 100 nM; in assay [2], 81 ± 5 nM; in assay [3], around 100000 nM.
In the case of `COc1cc2c(cc1OCc1cccc(F)c1)C(=O)C(CC1CCN(Cc3ccccc3)CC1)C2` (centres unmarked) [Compound 8n], the “SI, selectivity index based” value in assay [1] was 6.0. In addition, the IC50 was 959 nM and 960 nM in assay [1]; 156 nM and 160 nM in assay [2]; 12000 ± 3000 nM in assay [3].
On to `COc1cc2c(cc1OCc1ccccc1F)C(=O)C(CC1CCN(Cc3ccccc3)CC1)C2` (centres unmarked) [Compound 8o], for which, in assay [1], the “SI, selectivity index based” value is 6.3. Besides, the 50% inhibitory concentration (IC50) in assay [1] was 764 nM and 760 nM; in assay [2], 124 nM and 120 nM; in assay [3] it was 21000 ± 4000 nM.
Take `COc1cc2c(cc1OCc1ccccc1C(F)(F)F)C(=O)C(CC1CCN(Cc3ccccc3)CC1)C2` (centres unmarked) [Compound 8p]: in assay [1], the “SI, selectivity index based” value is recorded as 7.8; the “fold better than donepezil” value was 8 fold; the IC50 is 254 nM and 250 nM. Besides, in assay [2], the “fold enhanced potency against EeAChE” value stood at 4 fold and the IC50 stood at 32 ± 10 nM. In assay [3], the IC50 came out at 34000 ± 9000 nM.
For `COc1cc2c(cc1OCc1ccc(F)cc1F)C(=O)C(CC1CCN(Cc3ccccc3)CC1)C2` (centres unmarked) [Compound 8q], the “SI, selectivity index based” value in assay [1] came to 4.4. Also, in assay [1], the “fold better than donepezil” value worked out at 4 fold. For the same molecule, the half-inhibitory concentration (IC50) in assay [1] was 483 nM and 480 nM; in assay [2] it was 113 nM and 110 nM; in assay [3], 37000 ± 5000 nM.
As to `COc1cc2c(cc1OCc1cc(F)ccc1F)C(=O)C(CC1CCN(Cc3ccccc3)CC1)C2` (centres unmarked) [Compound 8r], the “SI, selectivity index based” value in assay [1] is 6.7. Moreover, in assay [1], the “fold better than donepezil” value was found to be 3 fold. The IC50 in assay [1] was 601 nM and 600 nM; in assay [2], 90 ± 9 nM; in assay [3], around 100000 nM.
Turning to `COc1cc2c(cc1OCc1c(F)cccc1F)C(=O)C(CC1CCN(Cc3ccccc3)CC1)C2` (centres unmarked) [Compound 8s], in assay [1], the “SI, selectivity index based” value stood at 28; the “fold better than donepezil” value was 5 fold; the IC50 was 438 nM and 440 nM. In addition, in assay [2], the “fold enhanced potency against EeAChE” value was “eight” and the IC50 worked out at 16 ± 1 nM. In assay [3], the IC50 was 30000 ± 8000 nM.
`COc1cc2c(cc1OCc1ccc(Br)cc1F)C(=O)C(CC1CCN(Cc3ccccc3)CC1)C2` (centres unmarked) [Compound 8t]: the “SI, selectivity index of EeAChE versus HsAChE, based on IC50 values” in assay [4] was determined as 30. The IC50 in assay [4] (37 °C, read-out: IC50, inhibition of HsAChE) was 1.8 ± 0.6 nM; in assay [1], 372 nM and 370 nM; in assay [2] it was 54 ± 7 nM; in assay [3], 169000 ± 2000 nM. The “fold better inhibition of HsAChE than donepezil” value in assay [4] (ratio of IC50 values) came out at 18 fold. Besides, the “SI, selectivity index based” value in assay [1] was determined as 6.9. In assay [2], the “fold enhanced potency against EeAChE” value worked out at 2.2 fold.
Turning to `COc1cc2c(cc1OCc1c(F)cc(F)cc1F)C(=O)C(CC1CCN(Cc3ccccc3)CC1)C2` (centres unmarked) [Compound 8u], in assay [1], the “SI, selectivity index based” value is 7.4; the “fold better than donepezil” value is on record as 10 fold; the IC50 was 199 nM and 200 nM. Besides, in assay [2], the “fold enhanced potency against EeAChE” value is “five” and the IC50 was determined as 27 ± 4 nM. Also, the IC50 in assay [3] turned out to be 91000 ± 14000 nM.
As to `COc1cc2c(cc1OCc1c(F)c(F)c(F)c(F)c1F)C(=O)C(CC1CCN(Cc3ccccc3)CC1)C2` (centres unmarked) [Compound 8v], the “fold more selective for EfBChE (over EeAChE)” value in assay [1] turned out to be 1.5 fold. The “fold better than donepezil” value in assay [1] is listed as 18 fold. In addition, the IC50 in assay [1] was 114 nM and 110 nM; in assay [2] it was 172 nM and 170 nM; in assay [3], 29000 ± 6000 nM.

A word on the IC50: it is the concentration that inhibits the measured activity by half.
